Reference: paper PMC12552937, “Kinetic mechanisms of electron bifurcation with electron transfer flavoprotein, NADH, butyryl-CoA dehydrogenase, and ferredoxin reveal a semiquinone cycle” (The Journal of Biological Chemistry, 2025)

Legend:
[1] = target: T1, EtfAB (electron transfer flavoprotein) (Acidaminococcus fermentans, UniProt D2RIQ2); test: anaerobic stopped-flow, beta-FAD reduction and charge-transfer complex at […] nm; format: biochemical; conditions: 40 μM EtfAB + 40 μM NADH, 50 mM potassium phosphate pH 7.0, 4 °C; beta-FAD site
T1 construct: gene Acfer_0555; recombinant from E. coli, pET-11a, no tag told; heterodimer with alpha-FAD (EtfA) and beta-FAD (EtfB); with Electron transfer flavoprotein subunit alpha
T1 sequence (D2RIQ2 1-263): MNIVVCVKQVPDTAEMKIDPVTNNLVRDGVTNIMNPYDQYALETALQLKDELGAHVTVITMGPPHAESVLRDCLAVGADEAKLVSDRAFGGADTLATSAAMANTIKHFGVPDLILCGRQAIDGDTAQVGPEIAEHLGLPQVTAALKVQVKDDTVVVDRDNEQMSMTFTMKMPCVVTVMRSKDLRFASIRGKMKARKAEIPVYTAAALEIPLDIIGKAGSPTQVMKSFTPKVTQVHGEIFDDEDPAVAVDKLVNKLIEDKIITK
T1 sequence (D2RIQ3 1-340 partner): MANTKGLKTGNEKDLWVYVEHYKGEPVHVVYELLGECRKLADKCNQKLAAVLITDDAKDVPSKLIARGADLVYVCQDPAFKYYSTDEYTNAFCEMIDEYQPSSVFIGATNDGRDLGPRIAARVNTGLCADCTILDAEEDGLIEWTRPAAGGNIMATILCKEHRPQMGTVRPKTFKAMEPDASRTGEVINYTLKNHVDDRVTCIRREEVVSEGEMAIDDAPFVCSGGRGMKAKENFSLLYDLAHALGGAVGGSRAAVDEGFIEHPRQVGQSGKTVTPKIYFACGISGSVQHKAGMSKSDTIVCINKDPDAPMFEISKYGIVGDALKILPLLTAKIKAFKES

[2] = target: T2, Bcd (butyryl-CoA dehydrogenase) (Acidaminococcus fermentans, UniProt D2RL84); test: static titration, double-beam UV-visible difference absorbance at […] nm; format: binding
T2 construct: gene Acfer_1477; recombinant from E. coli, pET-11a, no tag told; homotetramer with one delta-FAD per subunit
T2 sequence (D2RL84 1-383): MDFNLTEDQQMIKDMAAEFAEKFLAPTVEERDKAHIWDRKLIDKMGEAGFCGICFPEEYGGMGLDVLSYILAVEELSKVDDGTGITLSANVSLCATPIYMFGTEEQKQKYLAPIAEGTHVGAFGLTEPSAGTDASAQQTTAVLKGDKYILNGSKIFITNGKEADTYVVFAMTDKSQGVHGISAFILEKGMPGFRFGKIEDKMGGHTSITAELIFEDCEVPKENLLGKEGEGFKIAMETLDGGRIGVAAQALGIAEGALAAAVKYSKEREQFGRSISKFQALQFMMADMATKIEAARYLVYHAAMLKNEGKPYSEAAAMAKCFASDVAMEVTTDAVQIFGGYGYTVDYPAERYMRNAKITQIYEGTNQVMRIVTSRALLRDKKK

Row | Kd [2] [µM] | Compound | anaerobic stopped-flow, beta-FAD reduction and charge-transfer complex at 650 nm [1]
1 | – | NC(=O)C1=CN([C@@H]2O[C@H](COP(=O)(O)OP(=O)(O)OC[C@H]3O[C@@H](n4cnc5c(N)ncnc54)[C@H](O)[C@@H]3O)[C@@H](O)[C@H]2O)C=CC1 [NADH] | mixing EtfAB with a stoichiometric amount NADH resulted in a rapid reduction of β-FAD
2 | 95 ± 6 | C/C=C/C(=O)SCCNC(=O)CCNC(=O)[C@H](O)C(C)(C)COP(=O)(O)OP(=O)(O)OC[C@H]1O[C@@H](n2cnc3c(N)ncnc32)[C@H](O)[C@@H]1OP(=O)(O)O [crotonyl-CoA] | –
